In general, IC50 refers to the concentration that gives 50% inhibition.

The target of the experiment is Glycogen synthase kinase-3 beta splice variant X1 (Bos taurus, UniProt A0A059UE90). Kind of experiment: Inhibition Assay: A mixture containing 100 mM MES-sodium hydroxide (pH 6.5), 1 mM magnesium acetate, 0.5 mM EGTA, 5 mM, β-mercaptoethanol, 0.02% Tween 20, 10% glycerol, 12 µg/ml P-GS1, 41.7 µM [γ-^32P] ATP (68 kBq/ml), bovine cerebral TPK1 and a compound shown in Table (a final mixture contained 1.7% DMSO deriving from a solution of a test compound prepared in the presence of 10% DMSO) was used as a reaction system. The phosphorylation was started by adding ATP, and the reaction was conducted at 25° C. for 2 hours, and then stopped by adding 21% perchloric acid on ice cooling. The reaction mixture was centrifuged at 12,000 rpm for 5 minutes and adsorbed on P81 paper (Whatmann), and then the paper was washed four times with 75 mM phosphoric acid, three times with water and once with acetone. The paper was dried, and the residual radioactivity was measured using a liquid scintillation counter.
`Cn1c(OCC(=O)c2ccc(Br)cc2)nc(-c2ccncn2)cc1=O`: the IC50 was 0.108 µM.
As to `Cn1c(OCC(=O)c2ccc(Br)cc2)nc(-c2ccncc2F)cc1=O`, the IC50 was determined as 0.027 µM.
For the compound `Cn1c(OCC(=O)c2ccccc2)nc(-c2ccncn2)cc1=O`, the IC50 came out at 0.02 µM.
`Cn1c(OCC(=O)c2ccc(Br)cc2)nc(-c2ccncc2)cc1=O`: the IC50 was determined as 0.167 µM.

The values are drawn from ChEMBL document CHEMBL3638383, “Pyrimidone derivatives” (2015).
